Experiment [1] addresses T1, NAMPT (Homo sapiens, UniProt P43490).
T1 construct: His tag; host or cells: E. coli
Put plainly: Biochemical inhibition assay: NAMPT enzymatic reaction, NMN quantified by mass spectrometry. The note with it: NAMPT enzymatic reaction; read-out: Biochem IC50. Summed up: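 Inhibition of E. coli-expressed His-tagged human NAMPT, measured as NMN formation by mass spectrometry after a 30 min room-temperature reaction containing 1 μM NAM, 100 μM PRPP and 2.5 mM ATP.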

Experiment [2] deals with A2780 cells. Kind of experiment: In-vitro cell proliferation assay (SRB), A2780 cells. In kind it is cell-based. The settings on record: Homo sapiens, A2780, 72 h, A2780 cells, 72 hours, read-out: A2780 IC50. Summed up:
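Read-out is SRB absorbance at 570 nm on TCA-fixed cells after 72 hours of compound treatment at 37° C. in 5% CO2. Background from a media-only plate is subtracted, and % inhibition is interpolated between two tested concentrations.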

SMILES strings stand for the structures. pIC50: −log10 of the molar value. Like-named read-outs stand apart in the source and are kept apart here.

The text below walks through data of US12336981B2, “Compounds and compositions for the inhibition of NAMPT” (Valo Health, Inc., priority 2010, dated 2025).

T1 sequence (P43490 whole entry): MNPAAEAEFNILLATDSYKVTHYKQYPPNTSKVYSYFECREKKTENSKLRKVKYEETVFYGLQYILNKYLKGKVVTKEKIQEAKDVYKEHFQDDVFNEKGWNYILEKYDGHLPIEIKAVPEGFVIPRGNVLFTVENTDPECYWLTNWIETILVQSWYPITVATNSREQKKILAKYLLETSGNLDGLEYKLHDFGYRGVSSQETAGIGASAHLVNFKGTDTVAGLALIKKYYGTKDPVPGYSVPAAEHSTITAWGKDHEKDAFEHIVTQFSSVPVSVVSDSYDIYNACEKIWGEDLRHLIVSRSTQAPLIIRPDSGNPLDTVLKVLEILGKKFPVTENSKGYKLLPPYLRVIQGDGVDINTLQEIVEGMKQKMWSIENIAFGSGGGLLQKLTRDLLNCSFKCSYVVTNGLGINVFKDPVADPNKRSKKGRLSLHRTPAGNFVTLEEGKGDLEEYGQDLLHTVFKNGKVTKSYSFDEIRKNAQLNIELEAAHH

With `N#Cc1ccccc1S(=O)(=O)c1ccc(CNC(=O)c2cc3ccncc3s2)cc1` [N-({4-[(2-cyanobenzene)sulfonyl]phenyl}methyl)thieno[2,3-c]pyridine-2-carboxamide], the values for the pIC50 in experiment [1] and in experiment [2] (SRB) were 7.84 and 7.17, respectively.

In the case of `CCOc1cc(F)ccc1S(=O)(=O)c1ccc(CNC(=O)c2cc3cnccc3[nH]2)cc1` [N-({4-[(2-ethoxy-4-fluorobenzene)sulfonyl]phenyl}methyl)-1H-pyrrolo[3,2-c]pyridine-2-carboxamide], the pIC50 in experiment [1] is 8.47; in experiment [2] (SRB) it was 8.74.

Take `CCOc1cccc(F)c1S(=O)(=O)c1ccc(CNC(=O)c2cc3ccncc3o2)cc1` [N-({4-[(2-ethoxy-6-fluorobenzene)sulfonyl]phenyl}methyl)furo[2,3-c]pyridine-2-carboxamide]: the pIC50 is 7.77 in experiment [1] and 7.55 in experiment [2] (SRB).

For the compound `CCOc1ccccc1S(=O)(=O)c1ccc(CNC(=O)c2cc3cnccc3[nH]2)cc1` [N-({4-[(2-ethoxybenzene)sulfonyl]phenyl}methyl)-1H-pyrrolo[3,2-c]pyridine-2-carboxamide], the pIC50 in experiment [1] is 7.96; in experiment [2] (SRB assay) it was 8.70.

`CCOc1ccccc1S(=O)(=O)c1ccc(CNC(=O)c2cc3ccncc3o2)cc1` [N-({4-[(2-ethoxybenzene)sulfonyl]phenyl}methyl)furo[2,3-c]pyridine-2-carboxamide]: the pIC50 in experiment [1] is 7.18; in experiment [2] (SRB), 8.22.

Take `CCOc1ccccc1S(=O)(=O)c1ccc(CNC(=O)c2ccc3nccn3c2)cc1` [N-({4-[(2-ethoxybenzene)sulfonyl]phenyl}methyl)imidazo[1,2-a]pyridine-6-carboxamide]: the pIC50 is 7.69 in experiment [1] and 8.47 in experiment [2] (SRB).

With `CCOc1ccccc1S(=O)(=O)c1ccc(CNC(=O)c2cc3ccncc3s2)cc1` [N-({4-[(2-ethoxybenzene)sulfonyl]phenyl}methyl)thieno[2,3-c]pyridine-2-carboxamide], the pIC50 in experiment [1] is 8.70; in experiment [2] (SRB assay) it was 9.10.

For the compound `CCc1ccccc1S(=O)(=O)c1ccc(CNC(=O)c2cnc3[nH]ncc3c2)cc1` [N-({4-[(2-ethylbenzene)sulfonyl]phenyl}methyl)-1H-pyrazolo[3,4-b]pyridine-5-carboxamide], the pIC50 in experiment [1] is 8.08; in experiment [2] (SRB), 7.89.

Regarding `CCc1ccccc1S(=O)(=O)c1ccc(CNC(=O)c2cc3cnccc3[nH]2)cc1` [N-({4-[(2-ethylbenzene)sulfonyl]phenyl}methyl)-1H-pyrrolo[3,2-c]pyridine-2-carboxamide], the pIC50 in experiment [1] is 8.30; in experiment [2] (SRB assay), 8.52.

With `CCc1ccccc1S(=O)(=O)c1ccc(CNC(=O)c2cc3ccncc3o2)cc1` [N-({4-[(2-ethylbenzene)sulfonyl]phenyl}methyl)furo[2,3-c]pyridine-2-carboxamide], the values for the pIC50 in experiment [1] and in experiment [2] (SRB) were 8.27 and 7.89, respectively.

For `CCc1ccccc1S(=O)(=O)c1ccc(CNC(=O)c2ccc3nccn3c2)cc1` [N-({4-[(2-ethylbenzene)sulfonyl]phenyl}methyl)imidazo[1,2-a]pyridine-6-carboxamide], the pIC50 in experiment [1] was 7.52; in experiment [2] (SRB) it was 7.89.

For `CCc1ccccc1S(=O)(=O)c1ccc(CNC(=O)c2cc3ccncc3s2)cc1` [N-({4-[(2-ethylbenzene)sulfonyl]phenyl}methyl)thieno[2,3-c]pyridine-2-carboxamide], the figures for the pIC50 in experiment [1] and in experiment [2] (SRB assay) were 8.30 and 8.54, respectively.

For the compound `COc1cccc(S(=O)(=O)c2ccc(CNC(=O)c3cc4cnccc4[nH]3)cc2)c1F` [N-({4-[(2-fluoro-3-methoxybenzene)sulfonyl]phenyl}methyl)-1H-pyrrolo[3,2-c]pyridine-2-carboxamide], the results for the pIC50 in experiment [1] and in experiment [2] (SRB assay) were 8.00 and 8.15, respectively.

As to `COc1cccc(S(=O)(=O)c2ccc(CNC(=O)c3ccc4nccn4c3)cc2)c1F` [N-({4-[(2-fluoro-3-methoxybenzene)sulfonyl]phenyl}methyl)imidazo[1,2-a]pyridine-6-carboxamide], the pIC50 in experiment [1] is 7.48; in experiment [2] (SRB) it was 7.87.

Broadly, the pIC50 is the IC50 on a negative log10 scale, so that one unit is a factor of ten.
